Test results taken from paper PMC4311994, “Identification, Expression Profiling and Fluorescence-Based Binding Assays of a Chemosensory Protein Gene from the Western Flower Thrips, Frankliniella occidentalis” (PLoS ONE, 2015).

Each molecule was assayed against T1, FoccCSP protein (Frankliniella occidentalis, UniProt A0A0C5AYL1) (assay: Binding of the fluorescent probe 1-NPN to FoccCSP (titration, Scatchard plot)). Conditions: 2 μM FoccCSP titrated with 1-NPN to 2–20 μM, read-out: FoccCSP/1-NPN complex dissociation constant.
T1 sequence (A0A0C5AYL1 20-128): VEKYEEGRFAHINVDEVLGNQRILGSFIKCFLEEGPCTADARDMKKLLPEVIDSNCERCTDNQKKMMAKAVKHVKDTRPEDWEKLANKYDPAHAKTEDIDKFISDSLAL
Protocol: (§1) Fluorescence binding assays were performed using a 970CRT spectrofluorophotometer (Lengguang, Shanghai, China) at 25°C with a 1 cm lightpath quartz cuvette and 10 nm slit width for excitation and emission. FoccCSP protein was diluted from a 2 μM stock solution with 50 mM Tris-HCl buffer (pH 7.4). The fluorescent probe N-phenyl-1-naphthylamine (1-NPN) was diluted from a 1 mM stock solution with methanol. The potential ligands were prepared in a similar manner as 1-NPN.
The intrinsic fluorescence of tryptophan was measured using a 2 μM FoccCSP protein solution. The excitation wavelength was 285 nm, and the emission spectrum was recorded between 290 and 530 nm. Quenching of the intrinsic fluorescence was measured in the presence of 2, 4, 6, 8, 10, 12, 14, 16, 18, and 20 μM 1-NPN under the same conditions.
To measure the affinity of the 1-NPN fluorescent ligand for FoccCSP, the 2 μM protein solution prepared above was titrated with 1 mM 1-NPN to a final concentration between 2 and 20 μM. […]
To determine the 1-NPN and FoccCSP binding constants, the intensity values corresponding to the maximum fluorescence emissions were plotted against the concentration of free ligand. The bound ligand was evaluated using the fluorescence intensity values assuming that the protein was 100% active and using a saturation stoichiometry of 1:1 protein:ligand. […]
`c1ccc(Nc2cccc3ccccc23)cc1` [1-NPN, N-phenyl-1-naphthylamine] was tested, and the Kd was 11.8 µM.

Each molecule was assayed against recombinant FoccCSP protein (Frankliniella occidentalis, UniProt A0A0C5AYL1) (assay: biochemical). Conditions: not given.
Type: binding
Protocol: as §1
To measure the affinity of the 1-NPN fluorescent ligand for FoccCSP, the 2 μM protein solution prepared above was titrated with 1 mM 1-NPN to a final concentration between 2 and 20 μM. The affinities of the other potential ligands were measured using 1-NPN as a fluorescent reporter in competitive binding assays using 2 μM solutions of 1-NPN and FoccCSP and the addition of ligands to concentrations of 2–300 μM.
To determine the 1-NPN and FoccCSP binding constants, the intensity values corresponding to the maximum fluorescence emissions were plotted against the concentration of free ligand. The bound ligand was evaluated using the fluorescence intensity values assuming that the protein was 100% active and using a saturation stoichiometry of 1:1 protein:ligand. The curves were linearized using the Scatchard Plot program. The dissociation constants for the competitors were calculated from the corresponding IC50 values using the equation K i = [IC 50]/(1+[1-NPN]/K 1-NPN), where [1-NPN] is the free concentration of 1-NPN and K 1-NPN is the dissociation constant of the FoccCSP/1-NPN complex.
Molecule `O=Cc1ccccc1` [Benzaldehyde] has an IC50 of 52.5 µM.
`CC(=O)OCc1ccccc1` [Benzyl acetate] was tested, and the IC50 was 98.2 µM.
With `OCc1ccccc1` [Benzyl alcohol] the IC50 was 119 µM.
In the case of `CC(C)=CCCC(C)CCO` (centres unmarked) [Citronellol], the IC50 is reported as 75.8 µM.
Work on `CCc1ccccc1` [Ethyl benzene] yielded an IC50 of 63.4 µM.
For `CCOC(=O)c1cccnc1` [Ethyl nicotinate], the IC50 was 52 µM.
`CC12CCC(CC1)C(C)(C)O2` [Eucalyptol] showed an IC50 of 92.4 µM.
In the case of `C=CCc1ccc(O)c(OC)c1` [Eugenol], the IC50 is reported as 96.4 µM.
`CC(C)=CCC/C(C)=C/CO` [Geraniol] gave an IC50 of 15.3 µM.
`CCCCCC` [Hexane] was tested, and the IC50 was 94.2 µM.
With `C=CC(C)(O)CCC=C(C)C` (centres unmarked) [Linalool] the IC50 was 85.6 µM.
Work on `COC(=O)c1ccccc1O` [Methyl salicylate] yielded an IC50 of 35.2 µM.

Same assay, conditions: Dissociation constant (KD), calculated from IC50 with Ki = [IC50]/(1+[1-NPN]/K1-NPN); 2 μM 1-NPN and 2 μM FoccCSP
Work on `O=Cc1ccccc1` [Benzaldehyde] yielded a Kd of 48.4 µM.
With `CC(=O)OCc1ccccc1` [Benzyl acetate] the Kd was 90.5 µM.
For `OCc1ccccc1` [Benzyl alcohol], the Kd was 109 µM.
`CC(C)=CCCC(C)CCO` (centres unmarked) [Citronellol] showed a Kd of 69.9 µM.
With `CCc1ccccc1` [Ethyl benzene] the Kd was 58.5 µM.
`CCOC(=O)c1cccnc1` [Ethyl nicotinate] gave a Kd of 47.9 µM.
`CC12CCC(CC1)C(C)(C)O2` [Eucalyptol] showed a Kd of 85.2 µM.
Work on `C=CCc1ccc(O)c(OC)c1` [Eugenol] yielded a Kd of 88.9 µM.
`CC(C)=CCC/C(C)=C/CO` [Geraniol] showed a Kd of 14.1 µM.
`CCCCCC` [Hexane] gave a Kd of 86.9 µM.
With `C=CC(C)(O)CCC=C(C)C` (centres unmarked) [Linalool] the Kd was 79 µM.
Molecule `COC(=O)c1ccccc1O` [Methyl salicylate] has a Kd of 32.5 µM.

Same assay, conditions: competitive displacement of 1-NPN; 2 μM 1-NPN and 2 μM FoccCSP, ligands 2–300 μM, 50 mM Tris-HCl pH 7.4, 25°C; read-out: IC50
For 3- phenyl aldehyde, the IC50 was 108 µM.
Work on `COc1ccc(C=O)cc1` [Anisic aldehyde] yielded an IC50 of 11.4 µM.
Work on `CC(C)=CCC[C@@H](C)CC=O` [Citronellal] yielded an IC50 of 76.1 µM.
Molecule `COC(=O)c1ccncc1` [Methyl isonicotinate] has an IC50 of 52 µM.
Molecule `CCCCCCCCC=O` [Pelargonic aldehyde] has an IC50 of 79 µM.
Neroli showed an IC50 of 98.9 µM.

Same assay, conditions: ligands up to 300 μM
`O=Cc1ccccc1O` [Salicylaldehyde] was tested, and the “Displacement of 1-NPN from the FoccCSP/1-NPN complex, fluorescence intensity decreased to 50% of the initial value” was “unable to displace the fluorescent 1-NPN probe”.
